# Results taken from publication PMC8510368, “Secondary Metabolites with Anti-Inflammatory Activities from One Actinobacteria Amycolatopsis taiwanensis” (Molecules, 2021).
# Read-outs that look alike come from different tables or passages of the source.
# Key:
# Assay type in all cases: cell-based, mouse
# [1] = tested on: LPS-activated NO production in RAW 264.7 macrophages; experiment: Inhibition of LPS-induced NO production (nitrite, Griess reagent assay); conditions: for IC50: Mus musculus, read-out: IC50 NO; for NO inhibition (in words): LPS-induced NO production in RAW 264.7
# Method: (§1) Mouse macrophage cell line (RAW 264.7) was obtained from Bioresource Collection and Research Center (BCRC 60001) and cultured at 37 °C in Dulbecco’s Modified Eagle’s Medium (DMEM) supplemented with 10% fetal bovine serum (Gibco), 4.5 g/L glucose, 4 mM glutamine, penicillin (100 units/mL), and streptomycin (100 μg/mL) in a humidified atmosphere in a 5% CO2 incubator. The cells were treated with 10, 25, 50 μM natural products in the presence of 1 μg/mL LPS (lipopolysaccharide, Sigma-Aldrich, St. Louis, MO, USA) for 20 h. The concentration of NO in culture supernatants was determined as nitrite, a major stable product of NO, by Griess reagent assay, and cell viabilities were determined using the MTT assay as described previously.
# [2] = Cell viability, MTT assay; set-up: concentration or dose not given beside the values; conditions: mouse
# Method: as §1
# RAW 264.7 cells = experiment: Cell viability, MTT assay; set-up: concentration or dose not given beside the values
# Method: as §1
# iNOS mRNA expression = experiment: RT-PCR analysis of LPS-induced iNOS mRNA expression; conditions: LPS treatment
# [3] = RAW264.7, RAW 264.7 macrophages, 1 μg/mL LPS, 20 h, mean ± SEM (n = 4) of 3 independent experiments
# [4] = RAW 264.7 macrophage cells, RAW 264.7, MTT assay, read-out: cell viability
# [5] = RAW 264.7 macrophage cells, RAW 264.7 macrophages, MTT assay, mean ± SEM, read-out: Cell Viability (% Control)
Structure (SMILES),"IC50 [1, 3]","viability at 20 h [2, 4]","viability at 20 h [2, 5]",effect on LPS-increased iNOS mRNA expression (iNOS mRNA expression),NO inhibition (in words) [1],further results
CC1(C)CCc2cc(-c3ccc(O)cc3)cc(O)c2O1 [I],,,,,showed inhibitory activities,
"CC1(C)CCC2C(=CC1=O)CCC1C(C)(C(=O)O)CCCC21C (stereo not drawn) [Compound 6, 12(13→15)abeo-13-oxo-8(14)-abietene-18-oic acid]",24.8 ± 12.9 µM,< 80%,76.3 ± 5.48%,,,
"CC(=O)OCC(C)(O)C1CCC(C)C12CC=C(C)CC2 (stereo not drawn) [Compound 2, 12-acetoxy-11-hydroxyacora-3-ene]",34.2 ± 1.97 µM,,99.6 ± 5.53%,,less effective NO inhibition,
"CC(C)c1cc2c(c(O)c1O)[C@@]1(C)CCC(=O)C(C)(C)C1[C@@H](O)[C@H]2O (stereo partly drawn) [Compound 3, 6α,7α,11-trihydroxy-3-oxoferrugiol]",,,,inhibited this increase in a concentration-dependent manner,showed inhibitory activities,"IC50 ([1]; RAW264.7, 20 h): 17.5 ± 1.85 µM; viability at 20 h ([2]; Cell Viability (% Control)): 95.5 ± 3.39%; viability at 20 h ([2]; cell viability): > 80%; cell viability (RAW 264.7 cells; mouse, 20 h): > 95%"
CC(C)=CCCC1(C)C=Cc2cc(-c3ccc(O)cc3)cc(O)c2O1 (stereo not drawn) [H],,,,,showed inhibitory activities,
"C[C@@H]1[C@@H](O)CC2C(C)(C)C3CC21CC[C@@]3(C)O (relative stereo) [Compound 10, (2S*,3S*,6R*)-3,6,8,8-tetramethyloctahydro-1H-3a,7-methanoazulene-2,6-diol]",> 100 µM,,89.5 ± 2.15%,,,
CC(O)c1ccc2c(c1)CCC1[C@](C)(C(=O)O)CCC[C@]21C (stereo partly drawn) [E],,,,,showed inhibitory activities,

# Now from value to compound, other results behind:
"IC50 [1, 3]",Structure (SMILES),"viability at 20 h [2, 4]","viability at 20 h [2, 5]",effect on LPS-increased iNOS mRNA expression (iNOS mRNA expression),NO inhibition (in words) [1],further results
12.3 ± 4.97 µM,"CC(O)c1ccc2c(c1)CCC1[C@](C)(C(=O)O)CCC[C@]21C (relative stereo) [Compound 5, (1R*,4aS*)-7-(1-hydroxyethyl)-1,4a-dimethyl-1,2,3,4,4a,9,10,10a-octahydrophenanthrene-1-carboxylic acid]",> 80%,82.2 ± 3.21%,inhibited this increase in a concentration-dependent manner,,"cell viability (RAW 264.7 cells; RAW 264.7, MTT assay): > 95%"
13.3 ± 0.51 µM,"CC1(C)CCc2cc(-c3ccc(O)cc3)cc(O)c2O1 [Compound 9, 6-(4-hydroxyphenyl)-2,2-dimethylchroman-8-ol]",> 80%,98 ± 1.53%,inhibited this increase in a concentration-dependent manner,,"cell viability (RAW 264.7 cells; RAW 264.7, MTT assay): > 95%"
17.8 ± 1.13 µM,"CC(C)=CCCC1(C)C=Cc2cc(-c3ccc(O)cc3)cc(O)c2O1 (stereo not drawn) [Compound 8, amycolataiwanensin H]",> 80%,95.9 ± 1.32%,inhibited this increase in a concentration-dependent manner,,"cell viability (RAW 264.7 cells; RAW 264.7, MTT assay): > 95%"
35.9 ± 2.34 µM,"O=c1c(O)c(-c2ccc(O)c(O)c2)oc2cc(O)cc(O)c12 [Quercetin, quercetin, reference compound]",,94.1 ± 1.32%,,,
24.8 ± 1.63 µM,"CC(C)C1=C(O)C(=O)C2=C(CCC3C(C)(C)[C@@H](O)CC[C@]23C)C1=O (stereo partly drawn) [Compound 4, amycolataiwanensin D]",,91.1 ± 4.22%,,,
12.8 ± 4.82 µM,"COc1cc(CCCOC(C)=O)cc(OC)c1O [Compound 7, amycolataiwanensin G]",< 80%,56.3 ± 3.91%,,,
